Experimental data from patent US5281738A, “bis[4-(2,6-di-alkyl)phenol]silane derivatives as antiatherosclerotic agents” (Merrell Dow Pharmaceuticals Inc., priority 1992, dated 1994).

Tested on: human LDL (LDL lipid peroxidation)
Assay: Inhibition of LDL lipid peroxidation (cupric sulfate-induced, thiobarbituric acid assay)
Format: biochemical
Details: 250 μg human LDL, compound preincubated 30 min at 42 °C, cupric sulfate 12.5 μM final, 37 °C, 2.5 hours, read-out: ID50 (concentration of test compound required to inhibit 50% of LDL lipid peroxidation)
Method: The degree of inhibition of LDL lipid peroxidation was determined by the method of Yagi et al. [Vitamins 39, 105 (1968)].
A 0.5 mL solution containing 250 micrograms (μg) of human LDL was incubated with the test compound, in amounts varying from 0 to 30 μg, for 30 minutes at 42° C. To this mixture was added 1 mL of a cupric sulfate solution (final concentration 12.5 μM) and the mixture was incubated at 37° C. for 2.5 hours. The amount of peroxidation of LDL lipid was determined by the thiobarbituric acid assay. The concentration of test compound required to inhibit 50% of LDL lipid peroxidation (ID50) was determined.

CC(C)(C)c1cc(SC[Si](C)(C)CSc2cc(C(C)(C)C)c(O)c(C(C)(C)C)c2)cc(C(C)(C)C)c1O [Compound A, 4,4'-[(Dimethylsilylene)bis(methylenethio)]-bis[2,6-di-t-butyl]phenol]
IC50: 9.5 µM
